# Data reported in paper PMC8351594, “Design of Novel Amphipathic α-Helical Antimicrobial Peptides with No Toxicity as Therapeutics against the Antibiotic-Resistant Gram-Negative Bacterial Pathogen, Acinetobacter Baumannii” (Journal of medicinal chemistry and drug design, 2019).
# Square brackets hold non-standard residues; d marks the D form. Peptide text beside a SMILES is read from it. Dab = NCC[C@H](N)C(=O)O; Dap = NC[C@H](N)C(=O)O
# Tests used:
# Settings in all cases: Mueller-Hinton medium, 37°C, 24 h, inoculum 5 × 10^5 CFU/mL; MIC based on three sets of determinations
# [1] = test system: Acinetobacter baumannii MB9941
# Experimental: (§1) The A. baumannii strains used in this study consisted of seven strains resistant to Polymyxin B and Colistin (antibiotics of last resort) obtained from MERCK (M89941, M89949, M89951, M89952, M89953, M89955 and M89963). The MICGM in this case is the geometric mean MIC from the seven Acinetobacter baumannii strains used in this study.
# (§2) The minimal inhibitory concentration (MIC) is defined as the lowest peptide concentration that inhibited bacterial growth. MICs were measured by a standard microtiter dilution method in Mueller Hinton (MH) medium. Briefly, cells were grown overnight at 37°C in MH broth and were diluted in the same medium. […] The plates were incubated at 37°C for 24h, and the MICs were determined. The MICGM is the geometric mean of the number of MIC values.
# [2] = test system: Acinetobacter baumannii MB9949
# Experimental: as §1, §2
# [3] = test system: Acinetobacter baumannii MB9951
# Experimental: as §1, §2
# [4] = test system: Acinetobacter baumannii MB9952
# Experimental: as §1, §2
# [5] = test system: Acinetobacter baumannii MB9953
# Experimental: as §1, §2
# [6] = test system: Acinetobacter baumannii MB9955
# Experimental: as §1, §2
# [7] = test system: Acinetobacter baumannii MB9963
# Experimental: as §1, §2
SMILES,MIC MB9941 [1],MIC MB9949 [2],MIC MB9951 [3],MIC MB9952 [4],MIC MB9953 [5],MIC MB9955 [6],MIC MB9963 [7]
CC(=O)N[C@H](CCCCN)C(=O)N[C@H](CC(C)C)C(=O)N[C@H](CCCCN)C(=O)N[C@H](CO)C(=O)N[C@H](CC(C)C)C(=O)N[C@H](CC(C)C)C(=O)N[C@H](CCCCN)C(=O)N[C@@H](C(=O)N[C@H](CC(C)C)C(=O)N[C@H](CO)C(=O)N[C@H](C)C(=O)N[C@H](C)C(=O)N[C@H](CCCCN)C(=O)N[C@H](CCCCN)C(=O)N[C@H](CCCCN)C(=O)N[C@H](CCCCN)C(=O)N[C@H](CC(C)C)C(=O)N[C@H](C)C(=O)N[C@@H](C(=O)N[C@H](CC(C)C)C(=O)N[C@H](CC(C)C)C(=O)N[C@H](CCCCN)C(=O)N[C@H](C)C(=O)N[C@H](CC(C)C)C(=O)N[C@H](CO)C(=O)N[C@H](CCCCN)C(N)=O)[C@H](C)O)[C@H](C)O [D88(Lys^1-6 Lys-2)] (Ac-[dK][dL][dK][dS][dL][dL][dK][dT][dL][dS][dA][dA][dK][dK][dK][dK][dL][dA][dT][dL][dL][dK][dA][dL][dS][dK]-NH2),0.7 µM,0.7 µM,0.3 µM,0.3 µM,0.3 µM,0.3 µM,0.4 µM
CC(=O)N[C@H](CCCCN)C(=O)N[C@H](CC(C)C)C(=O)N[C@H](CCCCN)C(=O)N[C@H](CO)C(=O)N[C@H](CC(C)C)C(=O)N[C@H](CC(C)C)C(=O)N[C@H](CCCCN)C(=O)N[C@@H](C(=O)N[C@H](CC(C)C)C(=O)N[C@H](CO)C(=O)N[C@H](CCCCN)C(=O)N[C@H](C)C(=O)N[C@H](CCCCN)C(=O)N[C@H](C)C(=O)N[C@H](C)C(=O)N[C@H](CCCCN)C(=O)N[C@H](CC(C)C)C(=O)N[C@H](CCCCN)C(=O)N[C@@H](C(=O)N[C@H](CC(C)C)C(=O)N[C@H](CC(C)C)C(=O)N[C@H](CCCCN)C(=O)N[C@H](C)C(=O)N[C@H](CC(C)C)C(=O)N[C@H](CO)C(=O)N[C@H](CO)C(N)=O)[C@H](C)O)[C@H](C)O [D101(Lys^1Ser^26-5 Lys-1)] (Ac-[dK][dL][dK][dS][dL][dL][dK][dT][dL][dS][dK][dA][dK][dA][dA][dK][dL][dK][dT][dL][dL][dK][dA][dL][dS][dS]-NH2),0.7 µM,0.7 µM,0.7 µM,0.7 µM,1.5 µM,0.7 µM,0.7 µM
CC(=O)N[C@H](CCCCN)C(=O)N[C@H](CC(C)C)C(=O)N[C@H](CCCCN)C(=O)N[C@H](CO)C(=O)N[C@H](CC(C)C)C(=O)N[C@H](CC(C)C)C(=O)N[C@H](CCCCN)C(=O)N[C@@H](C(=O)N[C@H](CC(C)C)C(=O)N[C@H](CO)C(=O)N[C@H](CCCCN)C(=O)N[C@H](C)C(=O)N[C@H](CCCCN)C(=O)N[C@H](C)C(=O)N[C@H](C)C(=O)N[C@H](CCCCN)C(=O)N[C@H](CC(C)C)C(=O)N[C@H](CCCCN)C(=O)N[C@@H](C(=O)N[C@H](CC(C)C)C(=O)N[C@H](CC(C)C)C(=O)N[C@H](CCCCN)C(=O)N[C@H](C)C(=O)N[C@H](CC(C)C)C(=O)N[C@H](CO)C(=O)N[C@H](CCCCN)C(N)=O)[C@H](C)O)[C@H](C)O [D84(Lys^1-6 Lys-1)] (Ac-[dK][dL][dK][dS][dL][dL][dK][dT][dL][dS][dK][dA][dK][dA][dA][dK][dL][dK][dT][dL][dL][dK][dA][dL][dS][dK]-NH2),0.3 µM,0.7 µM,0.3 µM,0.7 µM,0.7 µM,0.3 µM,0.7 µM
CC(=O)N[C@H](CCCCN)C(=O)N[C@H](CC(C)C)C(=O)N[C@@H](CN)C(=O)N[C@H](CO)C(=O)N[C@H](CC(C)C)C(=O)N[C@H](CC(C)C)C(=O)N[C@@H](CN)C(=O)N[C@@H](C(=O)N[C@H](CC(C)C)C(=O)N[C@H](CO)C(=O)N[C@H](C)C(=O)N[C@H](C)C(=O)N[C@H](CCCCN)C(=O)N[C@@H](CN)C(=O)N[C@@H](CN)C(=O)N[C@H](CCCCN)C(=O)N[C@H](CC(C)C)C(=O)N[C@H](C)C(=O)N[C@@H](C(=O)N[C@H](CC(C)C)C(=O)N[C@H](CC(C)C)C(=O)N[C@@H](CN)C(=O)N[C@H](C)C(=O)N[C@H](CC(C)C)C(=O)N[C@H](CO)C(=O)N[C@@H](CN)C(N)=O)[C@H](C)O)[C@H](C)O [D106(Lys^1-6 Dap-2)] (Ac-[dK][dL][Dap][dS][dL][dL][Dap][dT][dL][dS][dA][dA][dK][Dap][Dap][dK][dL][dA][dT][dL][dL][Dap][dA][dL][dS][Dap]-NH2),0.8 µM,0.8 µM,1.5 µM,0.8 µM,0.8 µM,0.4 µM,0.8 µM
CC(=O)N[C@H](CCCCN)C(=O)N[C@H](CC(C)C)C(=O)N[C@@H](CCN)C(=O)N[C@H](CO)C(=O)N[C@H](CC(C)C)C(=O)N[C@H](CC(C)C)C(=O)N[C@@H](CCN)C(=O)N[C@@H](C(=O)N[C@H](CC(C)C)C(=O)N[C@H](CO)C(=O)N[C@@H](CCN)C(=O)N[C@H](C)C(=O)N[C@H](CCCCN)C(=O)N[C@H](C)C(=O)N[C@H](C)C(=O)N[C@H](CCCCN)C(=O)N[C@H](CC(C)C)C(=O)N[C@@H](CCN)C(=O)N[C@@H](C(=O)N[C@H](CC(C)C)C(=O)N[C@H](CC(C)C)C(=O)N[C@@H](CCN)C(=O)N[C@H](C)C(=O)N[C@H](CC(C)C)C(=O)N[C@H](CO)C(=O)N[C@@H](CCN)C(N)=O)[C@H](C)O)[C@H](C)O [D86(Lys^1-6 Dab-1)] (Ac-[dK][dL][Dab][dS][dL][dL][Dab][dT][dL][dS][Dab][dA][dK][dA][dA][dK][dL][Dab][dT][dL][dL][Dab][dA][dL][dS][Dab]-NH2),1.5 µM,0.8 µM,0.8 µM,0.8 µM,0.8 µM,0.8 µM,0.8 µM
CC(=O)N[C@H](CCCCN)C(=O)N[C@H](CC(C)C)C(=O)N[C@@H](CCN)C(=O)N[C@H](CO)C(=O)N[C@H](CC(C)C)C(=O)N[C@H](CC(C)C)C(=O)N[C@@H](CCN)C(=O)N[C@@H](C(=O)N[C@H](CC(C)C)C(=O)N[C@H](CO)C(=O)N[C@H](C)C(=O)N[C@H](C)C(=O)N[C@H](CCCCN)C(=O)N[C@@H](CCN)C(=O)N[C@@H](CCN)C(=O)N[C@H](CCCCN)C(=O)N[C@H](CC(C)C)C(=O)N[C@H](C)C(=O)N[C@@H](C(=O)N[C@H](CC(C)C)C(=O)N[C@H](CC(C)C)C(=O)N[C@@H](CCN)C(=O)N[C@H](C)C(=O)N[C@H](CC(C)C)C(=O)N[C@H](CO)C(=O)N[C@@H](CCN)C(N)=O)[C@H](C)O)[C@H](C)O [D89(Lys^1-6 Dab-2)] (Ac-[dK][dL][Dab][dS][dL][dL][Dab][dT][dL][dS][dA][dA][dK][Dab][Dab][dK][dL][dA][dT][dL][dL][Dab][dA][dL][dS][Dab]-NH2),0.7 µM,0.7 µM,0.7 µM,0.7 µM,0.7 µM,0.7 µM,0.7 µM
CC(=O)N[C@H](CCCCN)C(=O)N[C@H](CC(C)C)C(=O)N[C@@H](CCN)C(=O)N[C@H](CO)C(=O)N[C@H](CC(C)C)C(=O)N[C@H](CC(C)C)C(=O)N[C@@H](CCN)C(=O)N[C@@H](C(=O)N[C@H](CC(C)C)C(=O)N[C@H](CO)C(=O)N[C@H](C)C(=O)N[C@H](C)C(=O)N[C@H](CCCCN)C(=O)N[C@@H](CCN)C(=O)N[C@@H](CCN)C(=O)N[C@H](CCCCN)C(=O)N[C@H](CC(C)C)C(=O)N[C@H](C)C(=O)N[C@@H](C(=O)N[C@H](CC(C)C)C(=O)N[C@H](CC(C)C)C(=O)N[C@@H](CCN)C(=O)N[C@H](C)C(=O)N[C@H](CC(C)C)C(=O)N[C@H](CO)C(=O)N[C@H](CO)C(N)=O)[C@H](C)O)[C@H](C)O [D104(Lys^1Ser^26-5 Dab-2)] (Ac-[dK][dL][Dab][dS][dL][dL][Dab][dT][dL][dS][dA][dA][dK][Dab][Dab][dK][dL][dA][dT][dL][dL][Dab][dA][dL][dS][dS]-NH2),0.7 µM,0.7 µM,0.7 µM,0.7 µM,1.5 µM,0.7 µM,0.7 µM
